Test: Solubility of the furylphosphine in water

Structure (SMILES)	solubility (23 °C)	further results
O=C([O-])c1ccc(P(c2ccccc2)c2ccccc2)o1.[Na+] [Example 1, sodium 2-(diphenylphosphino)furan-5-carboxylate]	250 mg/mL	–
O=P([O-])([O-])c1ccc(P(c2ccccc2)c2ccccc2)o1.[Na+].[Na+] [Example 2, disodium 2-(diphenylphosphino)furan-5-phosphonate]	–	solubility (20 °C): 680 mg/mL
O=P(O)(O)c1ccc(P(c2ccccc2)c2ccc(P(=O)(O)O)o2)o1 [Example 3, tetrasodium 2,2′-phenylphosphine-diylbis(furan-5-phosphonate)]	1140 mg/mL	–
O=S([O-])c1ccc(P(c2ccccc2)c2ccccc2)o1.[Na+] [Example 4, sodium 2-(diphenylphosphino)furan-5-sulphinate]	–	solubility (21 °C): 205 mg/mL
